The values below come from PMC9027910, “Synthesis and Antimycobacterial Evaluation of N-(4-(Benzyloxy)benzyl)-4-aminoquinolines” (Molecules, 2022).

The subject of one data set is M. tuberculosis H37Rv. In words: Minimum inhibitory concentration (resazurin microplate). The data set is classed as cell-based, Mycobacterium tuberculosis. Conditions: for MIC: Mycobacterium tuberculosis, M. tuberculosis H37Rv, 7 days + 48 h resazurin, highest value of three assays; for Activity against M. tuberculosis H37Rv in words: at the highest concentrations evaluated.

Consider `Cc1cc(NCc2ccc(OCc3ccccc3)cc2)c2ccccc2n1` [Compound 9a, N-(4-(benzyloxy)benzyl)-2-methylquinolin-4-amine], for which the melting point fell in the range of 134 to 136 °C. In the data set on M. tuberculosis H37Rv, the MIC is > 7 µM and the “Activity against M. tuberculosis H37Rv in words” value is “inactive”.
As to `CCc1cc(NCc2ccc(OCc3ccccc3)cc2)c2cc(OC)ccc2n1` [Compound 9aa, N-(4-(benzyloxy)benzyl)-2-ethyl-6-methoxyquinolin-4-amine], the melting point is 118 to 120 °C. In the data set on M. tuberculosis H37Rv, the minimal inhibitory concentration (MIC) amounted to 12.5 µM.
In turn, `Cc1cc(NCc2ccc(OCc3ccc(Cl)cc3)cc2)c2ccccc2n1` [Compound 9b, N-(4-((4-chlorobenzyl)oxy)benzyl)-2-methylquinolin-4-amine] gave a melting point of 111 to 113 °C. For the same compound, in the data set on M. tuberculosis H37Rv, the MIC is > 12.9 µM and the “Activity against M. tuberculosis H37Rv in words” value is “inactive”.
As to `Cc1cc(NCc2ccc(OCc3ccc(F)cc3)cc2)c2ccccc2n1` [Compound 9c, N-(4-((4-fluorobenzyl)oxy)benzyl)-2-methylquinolin-4-amine], the melting point is 134 to 136 °C. The MIC in the data set on M. tuberculosis H37Rv is 26.8 µM.
Regarding `Cc1cc(NCc2ccc(OCc3ccc(F)c(F)c3)cc2)c2ccccc2n1` [Compound 9d, N-(4-((3,4-difluorobenzyl)oxy)benzyl)-2-methylquinolin-4-amine], the melting point was in the range of 199 to 201 °C. Also, the minimum inhibitory concentration (MIC) in the data set with M. tuberculosis H37Rv came to 25.6 µM.
Taken in the same sequence, the figures for `Cc1cc(NCc2ccc(OCc3ccc(C(C)C)cc3)cc2)c2ccccc2n1` [Compound 9e, N-(4-((4-isopropylbenzyl)oxy)benzyl)-2-methylquinolin-4-amine] were 95 to 97 °C and 27 µM.
`COc1cc(COc2ccc(CNc3cc(C)nc4ccccc34)cc2)cc(OC)c1` [Compound 9f, N-(4-((3,5-dimethoxybenzyl)oxy)benzyl)-2-methylquinolin-4-amine] gave a melting point of 134 to 136 °C. Further, the minimum inhibitory concentration (MIC) in the data set on M. tuberculosis H37Rv came out at 12.1 µM.
As to `Cc1cc(NCc2ccc(OCc3ccccc3)cc2)c2cc(Cl)ccc2n1` [Compound 9g, N-(4-(benzyloxy)benzyl)-6-chloro-2-methylquinolin-4-amine], the melting point fell in the range of 165 to 167 °C. In addition, in the data set on M. tuberculosis H37Rv, the MIC turned out to be 6.4 µM.
The compound `Cc1cc(NCc2ccc(OCc3ccc(Cl)cc3)cc2)c2cc(Cl)ccc2n1` [Compound 9h, N-(4-((4-chlorobenzyl)oxy)benzyl) 6-chloro-2-methylquinolin-4-amine] registered a melting point of 177 to 179 °C. For the same compound, the MIC with M. tuberculosis H37Rv came to 5.9 µM.
Consider `Cc1cc(NCc2ccc(OCc3ccc(F)cc3)cc2)c2cc(Cl)ccc2n1` [Compound 9i, N-(4-((4-fluorobenzyl)oxy)benzyl) 6-chloro-2-methylquinolin-4-amine], for which the melting point lay in the range of 170 to 172 °C. Further, the minimum inhibitory concentration (MIC) in the data set on M. tuberculosis H37Rv amounted to 6.1 µM.
As for `Cc1cc(NCc2ccc(OCc3ccc(F)c(F)c3)cc2)c2cc(Cl)ccc2n1` [Compound 9j, N-(4-((3,4-difluorobenzyl)oxy)benzyl)-6-chloro-2-methylquinolin-4-amine], the melting point lay in the range of 137 to 139 °C. Moreover, in the data set with M. tuberculosis H37Rv, the MIC came out at 5.9 µM.
`Cc1cc(NCc2ccc(OCc3ccc(C(C)C)cc3)cc2)c2cc(Cl)ccc2n1` [Compound 9k, N-(4-((4-isopropylbenzyl)oxy)benzyl)-6-chloro-2-methylquinolin-4-amine] displayed a melting point of 126 to 128 °C. Besides, the MIC in the data set with M. tuberculosis H37Rv came to 5.8 µM.
Take `COc1cc(COc2ccc(CNc3cc(C)nc4ccc(Cl)cc34)cc2)cc(OC)c1` [Compound 9l, N-(4-((3,5-dimethoxybenzyl)oxy)benzyl)-6-chloro-2-methylquinolin-4-amine]: the melting point is 147 to 149 °C. Besides, the minimal inhibitory concentration (MIC) in the data set with M. tuberculosis H37Rv was 5.7 µM.
For the compound `Cc1cc(NCc2ccc(OCc3ccccc3)cc2)c2cc(Br)ccc2n1` [Compound 9m, N-(4-(benzyloxy)benzyl)-6-bromo-2-methylquinolin-4-amine], the melting point was in the range of 164 to 166 °C. For the same compound, the “Fold reduction of activity versus 9n and 9o” value with M. tuberculosis H37Rv (MIC of unsubstituted benzyloxy compound versus 4-halogenated 9n, 9o) was “more than 2 fold”. Besides, in the data set on M. tuberculosis H37Rv, the MIC was 5.8 µM.
In the case of `Cc1cc(NCc2ccc(OCc3ccc(F)c(F)c3)cc2)c2cc(Br)ccc2n1` [Compound 9p, N-(4-((3,4-difluorobenzyl)oxy)benzyl) 6-bromo-2-methylquinolin-4-amine], the melting point lay within 142 to 144 °C. For the same compound, the minimal inhibitory concentration (MIC) with M. tuberculosis H37Rv was determined as 5.3 µM.
Taken in the same sequence, the figures for `Cc1cc(NCc2ccc(OCc3ccc(C(C)C)cc3)cc2)c2cc(Br)ccc2n1` [Compound 9q, N-(4-((4-isopropylbenzyl)oxy)benzyl) 6-bromo-2-methylquinolin-4-amine] were 135 to 137 °C and 5.3 µM.
`COc1cc(COc2ccc(CNc3cc(C)nc4ccc(Br)cc34)cc2)cc(OC)c1` [Compound 9r, N-(4-((3,5-dimethoxybenzyl)oxy)benzyl)-6-bromo-2-methylquinolin-4-amine] registered a melting point of 151 to 153 °C. Moreover, in the data set on M. tuberculosis H37Rv, the minimal inhibitory concentration (MIC) stood at 5.1 µM.
As for `CCc1cc(NCc2ccc(OCc3ccccc3)cc2)c2cc(Br)ccc2n1` [Compound 9s, N-(4-(benzyloxy)benzyl)-6-bromo-2-ethylquinolin-4-amine], the melting point lay within 136 to 138 °C. Moreover, in the data set on M. tuberculosis H37Rv, the MIC came to 5.6 µM.
`CCc1cc(NCc2ccc(OCc3ccc(Cl)cc3)cc2)c2cc(Br)ccc2n1` [Compound 9t, N-(4-((4-chlorobenzyl)oxy)benzyl)-6-bromo-2-ethylquinolin-4-amine] displayed a melting point of 122 to 124 °C. Also, the “Fold higher MIC than 9n” value in the data set on M. tuberculosis H37Rv (MIC ratio versus methylated analogue 9n) was determined as 1.9 fold. Further, the MIC with M. tuberculosis H37Rv stood at 5.2 µM.
`COc1ccc2nc(C)cc(NCc3ccc(OCc4ccccc4)cc3)c2c1` [Compound 9u, N-(4-(benzyloxy)benzyl)-6-methoxy-2-methylquinolin-4-amine] yielded a melting point of 96 to 98 °C. In addition, the minimal inhibitory concentration (MIC) in the data set on M. tuberculosis H37Rv was 13 µM.
For `COc1ccc2nc(C)cc(NCc3ccc(OCc4ccc(Cl)cc4)cc3)c2c1` [Compound 9v, N-(4-((4-chlorobenzyl)oxy)benzyl)-6-methoxy-2-methylquinolin-4-amine], the melting point lay in the range of 259 to 261 °C. For the same compound, in the data set on M. tuberculosis H37Rv, the MIC amounted to 11.9 µM.
Taken in the same sequence, the figures for `COc1ccc2nc(C)cc(NCc3ccc(OCc4ccc(C(C)C)cc4)cc3)c2c1` [Compound 9w, N-(4-((4-isopropylbenzyl)oxy)benzyl)-6-methoxy-2-methylquinolin-4-amine] were 133 to 135 °C and 23.4 µM.
Taken in the same sequence, the figures for `COc1ccc2nc(C)cc(NCc3ccc(OCc4ccc(F)cc4)cc3)c2c1` [Compound 9x, N-(4-((4-fluorobenzyl)oxy)benzyl)-6-methoxy-2-methylquinolin-4-amine] were 141 to 143 °C and 12.4 µM.
`COc1ccc2nc(C)cc(NCc3ccc(OCc4ccc(F)c(F)c4)cc3)c2c1` [Compound 9y, N-(4-((3,4-difluorobenzyl)oxy)benzyl)-6-methoxy-2-methylquinolin-4-amine] had a melting point of 104 to 106 °C. Also, the MIC in the data set with M. tuberculosis H37Rv worked out at 5.9 µM.
Take `COc1cc(COc2ccc(CNc3cc(C)nc4ccc(OC)cc34)cc2)cc(OC)c1` [Compound 9z, N-(4-((3,5-dimethoxybenzyl)oxy)benzyl)-6-methoxy-2-methylquinolin-4-amine]: the melting point was in the range of 164 to 166 °C. Moreover, the minimum inhibitory concentration (MIC) with M. tuberculosis H37Rv was determined as 11.2 µM.
For the compound `NNC(=O)c1ccncc1` [INH, isoniazid, reference compound], the MIC in the data set with M. tuberculosis H37Rv came out at 2.3 µM.
